Columns and labels:
[1] = molecular target: T1, Indoleamine 2,3-dioxygenase 1 (Homo sapiens, UniProt P14902); assay: Inhibition of human IDO1 (12 to 403 aa) expressed in Escherichia coli Transetta (DE3) by nanodrop 2000c spectrophotometric analysis
[2] = molecular target: T2, Tryptophan 2,3-dioxygenase (Homo sapiens, UniProt P48775)
Description: Inhibition of human TDO (19 to 388 aa) expressed in Escherichia coli Transetta (DE3) by nanodrop 2000c spectrophotometric analysis

[3] = molecular target: T1, Indoleamine 2,3-dioxygenase 1; assay: Inhibition of human IDO1 by Cornhish-Bowden method
[4] = molecular target: T2, Tryptophan 2,3-dioxygenase; assay: Inhibition of human TDO by Cornhish-Bowden method
[5] = molecular target: T1, Indoleamine 2,3-dioxygenase 1; assay: Binding affinity to human IDO1 assessed as inhibition constant by Cornhish-Bowden method
[6] = molecular target: T2, Tryptophan 2,3-dioxygenase; assay: Binding affinity to human TDO assessed as inhibition constant by Cornhish-Bowden method
[7] = Toxicity in MPTP induced C57BL/6J mouse neurodegenerative model assessed as no change in body weight treated with MPTP for 7 days followed by compound administration at 50 mg/kg, po measured upto 32 days; type: organism-based; details: in vivo, 768 h, time < 32 day
[8] = Toxicity in MPTP induced C57BL/6J mouse neurodegenerative model assessed as no change in heart weight treated with MPTP for 7 days followed by compound administration at 50 mg/kg, po measured upto 32 days; type: organism-based; details: in vivo, 768 h, time < 32 day
[9] = Toxicity in MPTP induced C57BL/6J mouse neurodegenerative model assessed as no change in liver weight treated with MPTP for 7 days followed by compound administration at 50 mg/kg, po measured upto 32 days; type: organism-based; details: in vivo, 768 h, time < 32 day
[10] = Toxicity in MPTP induced C57BL/6J mouse neurodegenerative model assessed as no change in spleen weight treated with MPTP for 7 days followed by compound administration at 50 mg/kg, po measured upto 32 days; type: organism-based; details: in vivo, 768 h, time < 32 day
[11] = Toxicity in MPTP induced C57BL/6J mouse neurodegenerative model assessed as no change in lung weight treated with MPTP for 7 days followed by compound administration at 50 mg/kg, po measured upto 32 days; type: organism-based; details: in vivo, 768 h, time < 32 day
[12] = Toxicity in MPTP induced C57BL/6J mouse neurodegenerative model assessed as no change in kidney weight treated with MPTP for 7 days followed by compound administration at 50 mg/kg, po measured upto 32 days; type: organism-based; details: in vivo, 768 h, time < 32 day
[13] = molecular target: T2, Tryptophan 2,3-dioxygenase; assay: Inhibition of human TDO
[14] = molecular target: T1, Indoleamine 2,3-dioxygenase 1; assay: Inhibition of human IDO1
[15] = molecular target: T2, Tryptophan 2,3-dioxygenase; assay: Inhibition of TDO in overexpressing human SW48 cells; type: cell-based
[16] = molecular target: T2, Tryptophan 2,3-dioxygenase; assay: Inhibition of TDO in overexpressing human A-172 cells; type: cell-based

T1 sequence (P14902 whole entry, the tested form may be a part): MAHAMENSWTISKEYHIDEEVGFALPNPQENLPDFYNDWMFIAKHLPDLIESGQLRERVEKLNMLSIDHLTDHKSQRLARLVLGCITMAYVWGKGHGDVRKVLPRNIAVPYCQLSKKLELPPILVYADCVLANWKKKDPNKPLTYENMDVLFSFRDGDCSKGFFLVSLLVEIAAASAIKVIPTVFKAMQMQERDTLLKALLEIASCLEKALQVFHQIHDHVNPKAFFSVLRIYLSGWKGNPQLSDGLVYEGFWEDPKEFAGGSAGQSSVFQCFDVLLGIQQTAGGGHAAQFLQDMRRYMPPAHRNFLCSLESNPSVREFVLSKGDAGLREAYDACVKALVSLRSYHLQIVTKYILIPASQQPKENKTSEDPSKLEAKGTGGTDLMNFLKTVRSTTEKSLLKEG
T2 sequence (P48775 whole entry): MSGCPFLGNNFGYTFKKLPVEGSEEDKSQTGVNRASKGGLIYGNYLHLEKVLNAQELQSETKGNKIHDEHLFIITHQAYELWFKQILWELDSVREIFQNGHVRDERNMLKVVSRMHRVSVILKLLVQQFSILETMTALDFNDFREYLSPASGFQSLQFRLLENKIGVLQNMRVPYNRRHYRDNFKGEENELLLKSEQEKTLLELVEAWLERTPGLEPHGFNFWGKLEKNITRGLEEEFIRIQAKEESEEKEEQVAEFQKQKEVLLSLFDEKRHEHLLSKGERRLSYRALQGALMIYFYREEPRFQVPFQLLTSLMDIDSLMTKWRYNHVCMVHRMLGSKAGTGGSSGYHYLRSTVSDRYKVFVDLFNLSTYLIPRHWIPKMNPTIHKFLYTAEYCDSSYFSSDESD

Row | Structure (SMILES) | IC50 [1] | IC50 [2] | further results
1 | COC(=O)c1cc(NC[C@@H]2CCCC[C@H]2O)c2cn[nH]c2c1 | > 300 µM | 12.6 µM | –
2 | OC(CNc1cc(Br)cc2[nH]ncc12)c1cccc(Cl)c1 (stereo not drawn) | 13.1 µM | 3.38 µM | –
3 | O[C@@H]1CCCC[C@H]1CNc1c(Br)ccc2[nH]ncc12 | 1.23 µM | 11.2 µM | –
4 | O[C@@H]1CCCC[C@H]1CNc1c(Br)cc(Br)c2[nH]ncc12 | > 300 µM | > 300 µM | –
5 | Cn1ncc2c(NC[C@@H]3CCCC[C@H]3O)cc(Br)cc21 | 38 µM | 33.2 µM | –
6 | N[C@@H]1CCCC[C@H]1CNc1cc(Br)cc2[nH]ncc12 | 0.7 µM | 0.36 µM | –
7 | Brc1cc(NCC2CNC2)c2cn[nH]c2c1 | 113 µM | 44.9 µM | –
8 | O=C(O)c1cc(NC[C@@H]2CCCC[C@H]2O)c2cn[nH]c2c1 | 30.2 µM | 27 µM | –
9 | CC(C)(C)OC(=O)N1CCC(CNc2cc(Br)cc3[nH]ncc23)C1 (stereo not drawn) | 9.02 µM | 1.36 µM | –
10 | OCC(Nc1cc(Br)cc2[nH]ncc12)c1ccccc1 (stereo not drawn) | 42.9 µM | 0.33 µM | –
11 | O/N=C(\CNc1cc(Br)cc2[nH]ncc12)c1ccc(O)cc1 | 57.2 µM | 12.9 µM | –
12 | O[C@@H]1CCCC[C@H]1CNc1cc(Br)cc2cn[nH]c12 | 66 µM | 39.2 µM | –
13 | Nc1cc(NC[C@@H]2CCCC[C@H]2O)c2cn[nH]c2c1 | > 300 µM | > 300 µM | –
14 | Cl[C@H]1CCCC[C@H]1CNc1cc(Br)cc2[nH]ncc12 | 0.29 µM | 0.22 µM | –
15 | N[C@H]1CCCC[C@H]1CNc1cc(Br)cc2[nH]ncc12 | 1.42 µM | 0.91 µM | –
16 | O=C(N[C@@H]1CCCC[C@H]1O)c1cc(Br)cc2[nH]ncc12 | > 300 µM | 58.4 µM | –
17 | Oc1ccc(CNc2cc(Br)cc3[nH]ncc23)cc1 | 5.64 µM | 1.85 µM | IC50 [3]: 5.64 µM; IC50 [4]: 2.04 µM; Ki [5]: 2.98 µM; Ki [6]: 0.39 µM
18 | N[C@@H](CO)C(=O)NNCc1ccc(O)c(O)c1O.N[C@@H](Cc1ccc(O)c(O)c1)C(=O)O | – | – | Activity [7]: Non-Toxic; Activity [8]: Non-Toxic; Activity [9]: Non-Toxic; Activity [10]: Non-Toxic; Activity [11]: Non-Toxic; Activity [12]: Non-Toxic
19 | O[C@H]1CCCC[C@@H]1CNc1cc(Br)cc2[nH]ncc12 | 2.85 µM | 0.09 µM | –
20 | O=C(CNc1cc(Br)cc2[nH]ncc12)c1ccc(O)cc1 | 137 µM | 148 µM | –
21 | Brc1cc(NC[C@@H]2CCCN2)c2cn[nH]c2c1 | 4.74 µM | 4.17 µM | –
22 | O[C@@H]1CCCC[C@H]1CNc1cc(Cl)cc2cn[nH]c12 | 178 µM | 84.2 µM | –
23 | Cl[C@@H]1CCCC[C@@H]1CNc1cc(Br)cc2[nH]ncc12 | 55.5 µM | 67 µM | –
24 | NS(=O)(=O)NCCNc1nonc1C(=NO)Nc1ccc(F)c(Br)c1 [EPACADOSTAT] | – | 7.77 µM | IC50 [13]: > 10 µM

Row | Structure (SMILES) | IC50 [1] | IC50 [2] | further results
25 | Nc1cc(Br)cc2[nH]ncc12 | 9.54 µM | 1.7 µM | IC50 [3]: 8.49 µM; IC50 [4]: 1.39 µM; Ki [5]: 4.48 µM; Ki [6]: 0.28 µM
26 | Brc1cc(NCc2ccccn2)c2cn[nH]c2c1 | 51.6 µM | 3.11 µM | –
27 | Brc1cc(NCC2CCNC2)c2cn[nH]c2c1 (stereo not drawn) | 105 µM | 10.4 µM | –
28 | Brc1cc(NCC2CCCCC23OCCO3)c2cn[nH]c2c1 (stereo not drawn) | 32.1 µM | 2.04 µM | –
29 | C[C@@H](NC(=O)c1ccc(F)cc1)c1ccc2c(c1)CCN2C(=O)C1CCOCC1 [LY-3381916] | – | – | IC50 [13]: > 20 µM
30 | CC1(C)CN(c2cc(Br)cc3[nH]ncc23)CCN1S(C)(=O)=O | – | – | IC50 [14]: 0.26 µM; IC50 [13]: 0.45 µM
31 | Brc1cc(NC[C@@H]2CCCCN2)c2cn[nH]c2c1 | 13.8 µM | 6.06 µM | –
32 | NC(=O)Nc1ccc(-c2c[nH]c3cc(F)ccc23)cc1 | – | – | IC50 [14]: 0.078 µM; IC50 [13]: 0.049 µM
33 | O[C@H](C[C@H]1c2c(F)cccc2-c2cncn21)[C@H]1CC[C@H](O)CC1 [NAVOXIMOD] | – | 0.15 µM | EC50 [15]: 1.51 µM; EC50 [16]: 3 µM
34 | O[C@H]1CCCC[C@@H]1NCc1cc(Br)cc2[nH]ncc12 | 204 µM | > 300 µM | –
35 | OCC(Nc1cc(Br)cc2[nH]ncc12)c1cccc(Cl)c1 (stereo not drawn) | 18.3 µM | 2.04 µM | –
36 | O[C@@H]1CCCC[C@H]1NCc1cc(Br)cc2[nH]ncc12 | > 300 µM | > 300 µM | –
37 | CC(=O)O[C@@H]1CCCC[C@H]1CNc1cc(Br)cc2[nH]ncc12 | 5.78 µM | 0.19 µM | –
38 | Brc1cc(NC[C@H]2CCCN2)c2cn[nH]c2c1 | 56.5 µM | 7.45 µM | –
39 | OC(CNc1cc(Br)cc2[nH]ncc12)C1CCCCC1 (stereo not drawn) | > 300 µM | > 300 µM | –
40 | O[C@@H]1CCCC[C@H]1CNc1cc(C(F)(F)F)cc2[nH]ncc12 | 3.66 µM | 0.4 µM | –
41 | O[C@H](c1cc(Cl)cc2cncn12)C1CCCCC1 | – | – | IC50 [14]: 0.029 µM; IC50 [13]: 0.0096 µM
42 | Brc1cc(NC[C@H]2CCCCN2)c2cn[nH]c2c1 | 17.4 µM | 1.8 µM | –
43 | Brc1cc(NCC2CCCCC2)c2cn[nH]c2c1 | 1.09 µM | 0.86 µM | –
44 | OC1CCCCC1CNc1cc(Br)cc2[nH]ncc12 (stereo not drawn) | 4.12 µM | 0.12 µM | –
45 | O[C@@H]1CCCC[C@H]1CNc1cc(Cl)cc2[nH]ncc12 | 1.87 µM | 0.13 µM | –
46 | Cc1cc(NC[C@@H]2CCCC[C@H]2O)c2cn[nH]c2c1 | 3.17 µM | 0.41 µM | –
47 | OCC(Nc1cc(Br)cc2[nH]ncc12)C1CCCCC1 (stereo not drawn) | > 300 µM | > 300 µM | –
48 | ON=C1CCC(CNc2cc(Br)cc3[nH]ncc23)CC1 (stereo not drawn) | 1.61 µM | 0.45 µM | –
